Columns and labels:
[1] = tested on: FaDu cells; assay: Cell inhibitory activity experiment of cytotoxic drug (CellTiter-Glo, 72 hours); assay type: cell-based, human; conditions: Homo sapiens
Method: (§1) Human pancreatic adenocarcinoma cells BxPC-3 (ATCC, article number: CRL-1687) and human pharyngeal squamous cell carcinoma cells FaDu (ATCC, article number: HTB-43) were washed with PBS, then the cells were digested with 0.25% Trypsin-EDTA trypsin for about 3 minutes, and the digestion was terminated with a complete cell culture medium. The cells were centrifuged at 1000 rpm for 5 minutes, the supernatant was discarded, and the cells were resuspended with a complete cell culture medium, counted by a cell counter, and adjusted to a required density. Each well was added with 50 μL of the cell suspension according to 3000 cells per well, and the cell plate was placed into a 5% CO2 cell incubator at 37° C. to incubate the cells for 12-16 hours.
(§2) The cell plate was taken out of the incubator to observe a cell adhesion state, and after cell adhesion, each well was added with 50 μL of the sample (starting from 10 μM, diluted 5 times, 9 concentrations), shaken gently, and then placed into an incubator to incubate the cells for 72 hours. Each well was added with a Cell Titer-GLO™ (Promega, article number: G7572) working solution according to 100 μL/well and shaken gently to lyse the cells, and the plate was read on a microplate reader.
(§3) Data analysis: a graph was made by GraphPad Prism 7.0 software with a Log value of a sample concentration as an abscissa and Cytotoxicity % as an ordinate, and data were subjected to Nonlinear regression (curve fit) analysis to obtain an IC50 value of each compound.

[2] = tested on: BxPC-3 cells; assay: as above; assay type: cell-based, human; conditions: Homo sapiens
Method: as §1, §2, §3

| Structure (SMILES) | IC50 [1] | IC50 [2] |
| --- | --- | --- |
| CC[C@@]1(O)C(=O)OCc2c1cc1n(c2=O)Cc2c-1nc1cc(F)c(C)c3c1c2[C@@H](NC(=O)N(CC#N)CCO)CC3 [Example 1, 1-(cyanomethyl)-3-((1S,9S)-9-ethyl-5-fluoro-9-hydroxy-4-methyl-10,13-dioxo-2,3,9,10,13,15-hexahydro-1H,12H-benzo[de]pyrano[3′,4′:6,7]indolizino[1,2-b]quinoline-1-yl)-1-(2-hydroxyethyl)urea] | 6.68 nM | 8.27 nM |
| CC[C@@]1(O)C(=O)OCc2c1cc1n(c2=O)Cc2c-1nc1cc(F)c(C)c3c1c2[C@@H](NC(=O)N1C[C@H](O)CO1)CC3 [Example 4, (S)—N-((1S,9S)-9-ethyl-5-fluoro-9-hydroxy-4-methyl-10,13-dioxo-2,3,9,10,13,15-hexahydro-1H,12H-benzo[de]pyrano[3′,4′:6,7]indolizino[1,2-b]quinolin-1-yl)-4-hydroxyisoxazolidine-2-carboxamide] | 2.95 nM | 1.84 nM |
| CC[C@@]1(O)C(=O)OCc2c1cc1n(c2=O)Cc2c-1nc1cc(F)c(C)c3c1c2[C@@H](NC(=O)N1C[C@@H](O)CO1)CC3 [Example 5, (R)—N-((1S,9S)-9-ethyl-5-fluoro-9-hydroxy-4-methyl-10,13-dioxo-2,3,9,10,13,15-hexahydro-1H,12H-benzo[de]pyrano[3′,4′:6,7]indolizino[1,2-b]quinolin-1-yl)-4-hydroxyisoxazoline-2-carboxamide] | 0.75 nM | < 0.1 nM |
| CC[C@@]1(O)C(=O)OCc2c1cc1n(c2=O)Cc2c-1nc1cc(F)c(C)c3c1c2[C@@H](NC(=O)N(O)CCO)CC3 [Example 7, 3-((1S,9S)-9-ethyl-5-fluoro-9-hydroxy-4-methyl-10,13-dioxo-2,3,9,10,13,15-hexahydro-1H,12H-benzo[de]pyrano[3′,4′:6,7]indolizino[1,2-b]quinolin-1-yl)-1-hydroxy-1-(2-hydroxyethyl)urea] | < 0.1 nM | 0.76 nM |
| CC[C@@]1(O)C(=O)OCc2c1cc1n(c2=O)Cc2c-1nc1cc(F)c(C)c3c1c2[C@@H](NC(=O)N(CCO)OC)CC3 [Example 8, 3-((1S,9S)-9-ethyl-5-fluoro-9-hydroxy-4-methyl-10,13-dioxo-2,3,9,10,13,15-hexahydro-1H,12H-benzo[de]pyrano[3′,4′:6,7]indolizino[1,2-b]quinolin-1-yl)-1-(2-hydroxyethyl)-1-methoxyurea] | 0.13 nM | 1.45 nM |
| CC[C@@]1(O)C(=O)OCc2c1cc1n(c2=O)Cc2c-1nc1cc(F)c(C)c3c1c2[C@@H](NC(=O)N(C#N)CCO)CC3 [Example 9, 1-cyano-3-((1S,9S)-9-ethyl-5-fluoro-9-hydroxy-4-methyl-10,13-dioxo-2,3,9,10,13,15-hexahydro-1H,12H-benzo[de]pyrano[3′,4′:6,7]indolizino[1,2-b]quinolin-1-yl)-1-(2-hydroxyethyl)urea] | 2.34 nM | 2.15 nM |
| CC[C@@]1(O)C(=O)OCc2c1cc1n(c2=O)Cc2c-1nc1cc(F)c(C)c3c1c2[C@@H](NC(=O)N1CC(O)C1)CC3 [Example 10, N-((1S,9S)-9-ethyl-5-fluoro-9-hydroxy-4-methyl-10,13-dioxo-2,3,9,10,13,15-hexahydro-1H,12H-benzo[de]pyrano[3′,4′:6,7]indolizino[1,2-b]quinolin-1-yl)-3-hydroxyazetidine-1-carboxamide] | 6.04 nM | 5.1 nM |
| CC[C@@]1(O)C(=O)OCc2c1cc1n(c2=O)Cc2c-1nc1cc(F)c(C)c3c1c2[C@@H](NC(=O)N[C@H]1C[C@H](O)C1)CC3 [Example 12, 1-((1S,9S)-9-ethyl-5-fluoro-9-hydroxy-4-methyl-10,13-dioxo-2,3,9,10,13,15-hexahydro-1H,12H-benzo[de]pyrano[3′,4′:6,7]indolizino[1,2-b]quinolin-1-yl)-3-((1r,3S)-3-hydroxycyclobutyl)urea] | 42 nM | 5.77 nM |
| CC[C@@]1(O)C(=O)OCc2c1cc1n(c2=O)Cc2c-1nc1cc(F)c(C)c3c1c2[C@@H](NC(=O)N1CC[C@H](O)C1)CC3 [Example 13, (S)—N-((1S,9S)-9-ethyl-5-fluoro-9-hydroxy-4-methyl-10,13-dioxo-2,3,9,10,13,15-hexahydro-1H,12H-benzo[de]pyrano[3′,4′:6,7]indolizino[1,2-b]quinolin-1-yl)-3-hydroxypyrrolidine-1-carboxamide] | 36 nM | 2.49 nM |
| CC[C@@]1(O)C(=O)OCc2c1cc1n(c2=O)Cc2c-1nc1cc(F)c(C)c3c1c2[C@@H](NC(=O)N1CC[C@@H](O)C1)CC3 [Example 14, (R)—N-((1S,9S)-9-ethyl-5-fluoro-9-hydroxy-4-methyl-10,13-dioxo-2,3,9,10,13,15-hexahydro-1H,12H-benzo[de]pyrano[3′,4′:6,7]indolizino[1,2-b]quinolin-1-yl)-3-hydroxypyrrolidine-1-carboxamide] | 57.8 nM | 6.27 nM |
| CC[C@@]1(O)C(=O)OCc2c1cc1n(c2=O)Cc2c-1nc1cc(F)c(C)c3c1c2[C@@H](NC(=O)N1CC(N)C1)CC3 [Example 15, 3-amino-N-((1S,9S)-9-ethyl-5-fluoro-9-hydroxy-4-methyl-10,13-dioxo-2,3,9,10,13,15-hexahydro-1H,12H-benzo[de]pyrano[3′,4′:6,7]indolizino[1,2-b]quinolin-1-yl) azetidine-1-carboxamide] | 11.4 nM | 20.5 nM |
| CC[C@@]1(O)C(=O)OCc2c1cc1n(c2=O)Cc2c-1nc1cc(F)c(C)c3c1c2[C@@H](NC(=O)N[C@H]1C[C@@H](N)C1)CC3 [Example 16] | 4.33 nM | 7.93 nM |
| CC[C@@]1(O)C(=O)OCc2c1cc1n(c2=O)Cc2c-1nc1cc(F)c(C)c3c1c2[C@@H](NC(=O)N[C@H]1C[C@H](N)C1)CC3 [Example 17] | 2.26 nM | 4.04 nM |
| CC[C@@]1(O)C(=O)OCc2c1cc1n(c2=O)Cc2c-1nc1cc(F)c(C)c3c1c2[C@@H](NC(=O)NC1CNC1)CC3 [Example 18, 1-(azetidin-3-yl)-3-((1S,9S)-9-ethyl-5-fluoro-9-hydroxy-4-methyl-10,13-dioxo-2,3,9,10,13,15-hexahydro-1H,12H-benzo[de]pyrano[3′,4′:6,7]indolizino[1,2-b]quinolin-1-yl)urea] | 16.9 nM | 40.8 nM |
| CC[C@@]1(O)C(=O)OCc2c1cc1n(c2=O)Cc2c-1nc1cc(F)c(C)c3c1c2[C@@H](NC(=O)O[C@H]1C[C@@H](N)C1)CC3 [Example 19, (1S,3R)-3-aminocyclobutyl((1S,9S)-9-ethyl-5-fluoro-9-hydroxy-4-methyl-10,13-dioxo-2,3,9,10,13,15-hexahydro-1H,12H-benzo[de]pyrano[3′,4′:6,7]indolizino[1,2-b]quinolin-1-yl)carbamate] | 3.97 nM | 3.69 nM |
| CC[C@@]1(O)C(=O)OCc2c1cc1n(c2=O)Cc2c-1nc1cc(F)c(C)c3c1c2[C@@H](NC(=O)O[C@H]1C[C@H](N)C1)CC3 [Example 20, (1R,3S)-3-aminocyclobutyl((1S,9S)-9-ethyl-5-fluoro-9-hydroxy-4-methyl-10,13-dioxo-2,3,9,10,13,15-hexahydro-1H,12H-benzo[de]pyrano[3′,4′:6,7]indolizino[1,2-b]quinolin-1-yl)carbamate] | 2 nM | 3.05 nM |
| CC[C@@]1(O)C(=O)OCc2c1cc1n(c2=O)Cc2c-1nc1cc(F)c(C)c3c1c2[C@@H](NC(=O)OC1CNC1)CC3 [Example 21, azetidine-3-yl((1S,9S)-9-ethyl-5-fluoro-9-hydroxy-4-methyl-10,13-dioxo-2,3,9,10,13,15-hexahydro-1H,12H-benzo[de]pyrano[3′,4′:6,7]indolizino[1,2-b]quinolin-1-yl)carbamate] | 19.8 nM | 29.2 nM |
